Measured values: ChEMBL document CHEMBL1142620, “Anthraquinones and betaenone derivatives from the sponge-associated fungus Microsphaeropsis species: novel inhibitors of protein kinases” (J Nat Prod, 2000)

Assays:
[1] = target: Cyclin-dependent kinase 4/cyclin D1 (Homo sapiens, UniProt P11802); test: Inhibition of human recombinant CDK4/cyclin D1 kinase expressed in Sf9 insect cells
[2] = target: T1, Protein kinase C epsilon type (Mus musculus, UniProt P16054); test: Inhibition of mouse recombinant PKCepsilon expressed in Sf9 insect cells
T1 sequence (P16054 whole entry): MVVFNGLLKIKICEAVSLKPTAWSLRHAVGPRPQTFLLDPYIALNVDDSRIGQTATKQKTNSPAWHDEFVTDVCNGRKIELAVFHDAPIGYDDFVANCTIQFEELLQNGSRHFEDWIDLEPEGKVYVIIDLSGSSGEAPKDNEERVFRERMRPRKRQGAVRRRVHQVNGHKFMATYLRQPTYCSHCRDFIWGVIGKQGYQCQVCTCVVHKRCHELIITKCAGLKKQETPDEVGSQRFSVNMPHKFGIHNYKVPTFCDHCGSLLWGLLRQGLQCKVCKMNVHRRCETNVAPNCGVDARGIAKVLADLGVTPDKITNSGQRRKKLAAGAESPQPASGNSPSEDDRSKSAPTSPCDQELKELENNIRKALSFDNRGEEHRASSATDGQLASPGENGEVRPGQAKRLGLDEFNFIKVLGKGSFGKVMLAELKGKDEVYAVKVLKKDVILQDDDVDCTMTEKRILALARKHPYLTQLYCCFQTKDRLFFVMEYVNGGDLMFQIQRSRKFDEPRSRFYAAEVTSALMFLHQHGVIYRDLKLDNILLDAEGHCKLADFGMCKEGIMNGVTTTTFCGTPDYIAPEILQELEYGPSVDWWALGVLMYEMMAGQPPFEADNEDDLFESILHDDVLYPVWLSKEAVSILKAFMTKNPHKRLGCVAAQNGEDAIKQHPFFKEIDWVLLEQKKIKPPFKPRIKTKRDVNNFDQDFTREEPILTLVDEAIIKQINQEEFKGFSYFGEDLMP

[3] = target: Epidermal growth factor receptor (Homo sapiens, UniProt P00533); test: Inhibition of human recombinant EGFR kinase expressed in Sf9 insect cells
Epidermal growth factor receptor, sequence (P00533 whole entry): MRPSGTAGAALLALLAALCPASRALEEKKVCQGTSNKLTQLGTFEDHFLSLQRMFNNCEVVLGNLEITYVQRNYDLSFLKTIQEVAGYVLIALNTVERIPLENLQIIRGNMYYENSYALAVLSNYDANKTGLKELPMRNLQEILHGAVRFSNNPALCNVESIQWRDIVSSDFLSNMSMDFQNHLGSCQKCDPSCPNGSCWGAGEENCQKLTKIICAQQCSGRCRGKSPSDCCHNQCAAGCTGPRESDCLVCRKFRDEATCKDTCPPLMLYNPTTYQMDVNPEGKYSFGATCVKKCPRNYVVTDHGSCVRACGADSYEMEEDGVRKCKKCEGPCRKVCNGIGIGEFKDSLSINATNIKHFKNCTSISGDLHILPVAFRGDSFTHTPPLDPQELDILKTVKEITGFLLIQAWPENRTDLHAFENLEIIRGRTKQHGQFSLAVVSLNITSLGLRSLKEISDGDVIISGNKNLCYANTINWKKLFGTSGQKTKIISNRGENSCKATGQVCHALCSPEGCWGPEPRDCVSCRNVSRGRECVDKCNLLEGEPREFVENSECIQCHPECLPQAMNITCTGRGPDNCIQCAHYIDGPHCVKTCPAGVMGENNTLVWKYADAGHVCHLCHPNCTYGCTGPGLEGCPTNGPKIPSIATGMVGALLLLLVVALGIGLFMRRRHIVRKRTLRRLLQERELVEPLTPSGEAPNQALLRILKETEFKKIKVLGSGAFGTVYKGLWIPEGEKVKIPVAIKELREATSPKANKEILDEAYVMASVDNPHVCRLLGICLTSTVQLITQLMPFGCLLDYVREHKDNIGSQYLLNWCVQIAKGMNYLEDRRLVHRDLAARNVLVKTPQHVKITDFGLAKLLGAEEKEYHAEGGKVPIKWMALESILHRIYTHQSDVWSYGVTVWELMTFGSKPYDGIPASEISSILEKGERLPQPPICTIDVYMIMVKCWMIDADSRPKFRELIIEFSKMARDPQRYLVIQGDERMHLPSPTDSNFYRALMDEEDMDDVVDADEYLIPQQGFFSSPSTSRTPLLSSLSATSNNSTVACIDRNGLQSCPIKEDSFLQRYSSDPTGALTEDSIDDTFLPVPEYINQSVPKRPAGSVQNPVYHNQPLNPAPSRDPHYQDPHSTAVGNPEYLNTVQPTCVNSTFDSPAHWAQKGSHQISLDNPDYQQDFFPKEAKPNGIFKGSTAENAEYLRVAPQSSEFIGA

Cyclin-dependent kinase 4/cyclin D1, sequence (P11802 whole entry): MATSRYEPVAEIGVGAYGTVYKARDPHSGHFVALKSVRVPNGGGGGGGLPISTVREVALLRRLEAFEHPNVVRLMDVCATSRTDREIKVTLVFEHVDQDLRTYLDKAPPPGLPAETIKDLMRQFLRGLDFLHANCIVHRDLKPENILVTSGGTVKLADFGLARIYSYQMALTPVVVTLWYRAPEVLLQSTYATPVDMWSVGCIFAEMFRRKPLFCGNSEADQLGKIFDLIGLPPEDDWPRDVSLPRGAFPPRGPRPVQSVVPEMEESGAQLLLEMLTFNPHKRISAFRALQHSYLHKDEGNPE
Cyclin-dependent kinase 4/cyclin D1, sequence (P24385 whole entry, further chain): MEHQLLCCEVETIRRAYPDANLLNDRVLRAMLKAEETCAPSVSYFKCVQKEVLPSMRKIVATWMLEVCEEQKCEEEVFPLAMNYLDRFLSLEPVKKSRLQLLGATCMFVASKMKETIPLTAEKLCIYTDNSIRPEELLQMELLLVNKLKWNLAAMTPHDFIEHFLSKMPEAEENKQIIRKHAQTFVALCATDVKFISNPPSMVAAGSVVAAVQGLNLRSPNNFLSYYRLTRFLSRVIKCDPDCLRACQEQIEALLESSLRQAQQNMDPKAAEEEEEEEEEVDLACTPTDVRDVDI

Structure (SMILES) | IC50 [1] | IC50 [2] | IC50 [3]
CCC(C)[C@@H]1[C@@](C)(C(=O)/C=C/N(c2ccccc2)c2ccc3ccccc3c2)[C@H]2[C@H](C)C[C@@](C)(O)C[C@]2(O)C(=O)[C@@]1(C)O (stereo not given in full) | > 100 µM | > 100 µM | > 100 µM
CCC(C)[C@@H]1[C@@](C)(C(=O)/C=C/OC)[C@H]2[C@H](C)C[C@@](C)(O)C[C@]2(O)C(=O)[C@@]1(C)O (stereo not given in full) | 11.5 µM | 36 µM | 10.5 µM
CO[C@H](C)c1c(O)cc2c(c1O)C(=O)c1c(O)cc(O)cc1C2=O | 22.5 µM | 27 µM | 27.5 µM
CO[C@H](C)c1c(O)cc2c(c1O)C(=O)c1c(cc(O)c(O)c1O)C2=O | 37.5 µM | 54 µM | 41 µM
C[C@@H](O)c1c(O)cc2c(c1O)C(=O)c1c(O)cc(O)cc1C2=O | 43.5 µM | 18.5 µM | 37.5 µM
